From patent US8987195B2 (priority 2012, dated 2015)
Where two headings read alike, the source gives them in different places.

Experiments:
HCV genotype 1b replicon = test: HCV replicon assay, genotype 1b replicon EC50; type: cell-based, Hepatitis C virus; conditions: Hepatitis C virus, read-out: EC50 [gt-1b]
Outline: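 Stable neomycin-selected genotype 1b replicon cells, some carrying luciferase:Neo^r fusion, plated without G418 with a compound dilution series and incubated 24-48 h. Read-out was RNA (^32P-probe protection or TaqMan, normalized to cyclophilin A) or luciferase activity. EC50 from four-parameter fit as percent of DMSO control.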

[1] = target: HCV NS3/4A protease genotype 1b (Hepatitis C virus genotype 1b, UniProt P26663); test: HCV NS3/4A protease time-resolved fluorescence (TRF) assay, Ki against genotype 1b; type: biochemical
Outline: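 First, protease (genotype 1b 0.2 nM, A156T 0.4 nM, genotype 3a 0.025 nM) is preincubated 30 min with inhibitor. Next, 25 nM TRF substrate starts the reaction, run 2.5 h at room temperature. Finally, europium fluorescence is read and Ki calculated from IC50.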

[2] = IC50 [gt-1b], NS3/4A protease TRF assay, genotype 1b enzyme 0.2 nM
[3] = IC50 [gt-1b] (nM), NS3/4A genotype 1b, enzyme 0.2 nM
[4] = HCV replicon, genotype 1b, K+ salt
[5] = IC50 [gt-1b], NS3/4A protease TRF assay, genotype 1b enzyme 0.2 nM, K+ salt
[6] = IC50 [gt-1b] (nM), NS3/4A genotype 1b, enzyme 0.2 nM, K+ salt

Work on `CCC1(OC(=O)N[C@H]2CCCCC/C=C\[C@@H]3C[C@@]3(C(=O)NS(=O)(=O)C3(C)CC3)NC(=O)[C@@H]3C[C@]4(CCc5c(c(C(F)(F)F)nc6ccc(OC)cc56)O4)CN3C2=O)CC1` [Example 452, 1-ethylcyclopropyl [(2R,6S,12Z,13aS,14aR,16aS)-9′-methoxy-14a-{[(1-methylcyclopropyl)sulfonyl]carbamoyl}-5,16-dioxo-5′-(trifluoromethyl)-1,1′,2′,5,6,7,8,9,10,11,13a,14,14a,15,16,16a-hexadecahydrospiro[cyclopropa[e]pyrrolo[1,2-a][1,4]diazacyclopentadecine-2,3′-pyrano[2,3-c]quinolin]-6-yl]carbamate] yielded an EC50 (HCV genotype 1b replicon; HCV replicon, genotype 1b) of 2.4 nM and an IC50 [1, 2] of 0.03 nM.
`Cc1nc2ccc(F)cc2c2c1O[C@]1(CC2)C[C@H]2C(=O)N[C@]3(C(=O)NS(=O)(=O)C4(C)CC4)C[C@H]3/C=C\CCCCC[C@H](NC(=O)OC(C)(C)C)C(=O)N2C1` [Example 43, tert-Butyl (1aR,3aS,3′R,9S,16aS,Z)-9′-fluoro-5′-methyl-1a-(1-methylcyclopropylsulfonylcarbamoyl)-3,8-dioxo-1a,1′,2,2′,3,3a,4,6,8,9,10,11,12,13,14,16a-hexadecahydro-1H-spiro[cyclopropa[e]pyrrolo[1,2-a][1,4]diazacyclopentadecine-5,3′-pyrano[2,3-c]quinoline]-9-ylcarbamate] was tested, and the EC50 (HCV genotype 1b replicon; genotype 1b replicon) was 1.25 nM and the IC50 [1, 3] was 0.005 nM.
In the case of `COc1ccc2nc(C(F)(F)F)c3c(c2c1)CC[C@]1(C[C@H]2C(=O)N[C@]4(C(=O)NS(=O)(=O)C5(C)CC5)C[C@H]4/C=C\CCCCC[C@H](NC(=O)OC4(C)COC4)C(=O)N2C1)O3` [Example 422, 3-methyloxetan-3-yl [(2R,6S,12Z,13aS,14aR,16aS)-9′-methoxy-14a-{[(1-methylcyclopropyl)sulfonyl]carbamoyl}-5,16-dioxo-5′-(trifluoromethyl)-1,1′,2′,5,6,7,8,9,10,11,13a,14,14a,15,16,16a-hexadecahydrospiro[cyclopropa[e]pyrrolo[1,2-a][1,4]diazacyclopentadecine-2,3′-pyrano[2,3-c]quinolin]-6-yl]carbamate], the EC50 (HCV genotype 1b replicon; [4]) is reported as 3.14 nM and the IC50 [1, 5] is reported as 0.008 nM.
With `COc1ccc2nc(C)c3c(c2c1)[C@H](F)C[C@]1(C[C@H]2C(=O)N[C@]4(C(=O)NS(=O)(=O)C5(C)CC5)C[C@H]4/C=C\CCCCC[C@H](NC(=O)O[C@@H](C)C(C)C)C(=O)N2C1)O3` [Example 357, (2S)-3-methylbutan-2-yl [(1′R,2S,6S,12Z,13aS,14aR,16aS)-1′-fluoro-9′-methoxy-5′-methyl-14a-{[(1-methylcyclopropyl)sulfonyl]carbamoyl}-5,16-dioxo-1,1′,2′,5,6,7,8,9,10,11,13a,14,14a,15,16,16a-hexadecahydrospiro[cyclopropa[e]pyrrolo[1,2-a][1,4]diazacyclopentadecine-2,3′-pyrano[2,3-c]quinolin]-6-yl]carbamate] the EC50 (HCV genotype 1b replicon; genotype 1b replicon, K+ salt) was 2.91 nM and the IC50 [1, 6] was 0.01 nM.
Work on `Cc1nc2ccc(OC(F)F)cc2c2c1O[C@]1(CC2)C[C@H]2C(=O)N[C@]3(C(=O)NS(=O)(=O)C4(C)CC4)C[C@H]3/C=C\CCCCC[C@H](NC(=O)OCC(C)C)C(=O)N2C1` [Example 267, 2-methylpropyl [(2R,6S,12Z,13aS,14aR,16aS)-9′-(difluoromethoxy)-5′-methyl-14a-{[(1-methylcyclopropyl)sulfonyl]carbamoyl}-5,16-dioxo-1,1′,2′,5,6,7,8,9,10,11,13a,14,14a,15,16,16a-hexadecahydrospiro[cyclopropa[e]pyrrolo[1,2-a][1,4]diazacyclopentadecine-2,3′-pyrano[2,3-c]quinolin]-6-yl]carbamate] yielded an EC50 (HCV genotype 1b replicon; genotype 1b replicon, K+ salt) of 3.56 nM and an IC50 [1, 6] of 0.006 nM.
For `CCc1nc2ccc(OC)cc2c2c1O[C@]1(CC2)C[C@H]2C(=O)N[C@]3(C(=O)NS(=O)(=O)C4(C)CC4)C[C@H]3/C=C\CCCCC[C@H](NC(=O)OC3CCCC3)C(=O)N2C1` [Example 336, cyclopentyl [(2R,6S,12Z,13aS,14aR,16aS)-5′-ethyl-9′-methoxy-14a-{[(1-methylcyclopropyl)sulfonyl]carbamoyl}-5,16-dioxo-1,1′,2′,5,6,7,8,9,10,11,13a,14,14a,15,16,16a-hexadecahydrospiro[cyclopropa[e]pyrrolo[1,2-a][1,4]diazacyclopentadecine-2,3′-pyrano[2,3-c]quinolin]-6-yl]carbamate], the EC50 (HCV genotype 1b replicon; genotype 1b replicon) was 3.46 nM and the IC50 [1, 3] was 0.008 nM.
With `CCc1nc2ccc(OC)cc2c2c1O[C@]1(CC2)C[C@H]2C(=O)N[C@]3(C(=O)NS(=O)(=O)C4(C)CC4)C[C@H]3/C=C\CCCCC[C@H](NC(=O)O[C@H](C)C(C)C)C(=O)N2C1` [Example 433, (2R)-3-methylbutan-2-yl [(2R,6S,12Z,13aS,14aR,16aS)-5′-ethyl-9′-methoxy-14a-{[(1-methylcyclopropyl)sulfonyl]carbamoyl}-5,16-dioxo-1,1′,2′,5,6,7,8,9,10,11,13a,14,14a,15,16,16a-hexadecahydrospiro[cyclopropa[e]pyrrolo[1,2-a][1,4]diazacyclopentadecine-2,3′-pyrano[2,3-c]quinolin]-6-yl]carbamate] the EC50 (HCV genotype 1b replicon; HCV replicon, genotype 1b) was 2.17 nM and the IC50 [1, 2] was 0.012 nM.
`Cc1nc2ccccc2c2c1O[C@]1(CC2)C[C@H]2C(=O)N[C@]3(C(=O)NS(=O)(=O)C4(C)CC4)C[C@H]3/C=C\CCCCC[C@H](NC(=O)OC3(C(F)(F)F)CCCC3)C(=O)N2C1` [Example 326, 1-(trifluoromethyl)cyclopentyl [(2R,6S,12Z,13aS,14aR,16aS)-5′-methyl-14a-{[(1-methylcyclopropyl)sulfonyl]carbamoyl}-5,16-dioxo-1,1′,2′,5,6,7,8,9,10,11,13a,14,14a,15,16,16a-hexadecahydrospiro[cyclopropa[e]pyrrolo[1,2-a][1,4]diazacyclopentadecine-2,3′-pyrano[2,3-c]quinolin]-6-yl]carbamate] gave an EC50 (HCV genotype 1b replicon; genotype 1b replicon) of 1.11 nM and an IC50 [1, 3] of 0.023 nM.
In the case of `Cc1nc2ccc(OC(F)(F)F)cc2c2c1O[C@]1(CC2)C[C@H]2C(=O)N[C@]3(C(=O)NS(=O)(=O)C4(C)CC4)C[C@H]3/C=C\CCCCC[C@H](NC(=O)OC(C)(C)CCS(=O)(=O)C(C)C)C(=O)N2C1` [Example 305, 2-methyl-4-(propan-2-ylsulfonyl)butan-2-yl [(2R,6S,12Z,13aS,14aR,16aS)-5′-methyl-14a-{[(1-methylcyclopropyl)sulfonyl]carbamoyl}-5,16-dioxo-9′-(trifluoromethoxy)-1,1′,2′,5,6,7,8,9,10,11,13a,14,14a,15,16,16a-hexadecahydrospiro[cyclopropa[e]pyrrolo[1,2-a][1,4]diazacyclopentadecine-2,3′-pyrano[2,3-c]quinolin]-6-yl]carbamate], the EC50 (HCV genotype 1b replicon; genotype 1b replicon) is reported as 35.2 nM and the IC50 [1, 3] is reported as 0.029 nM.
Compound `COc1ccc2nc(C)c3c(c2c1)CC[C@]1(C[C@H]2C(=O)N[C@]4(C(=O)NS(=O)(=O)C5(C)CC5)C[C@H]4/C=C\CCCCC[C@H](Nc4ncccn4)C(=O)N2C1)O3` [Example 57, (2R,6S,13aS,14aR,16aS,Z)-9′-methoxy-5′-methyl-N-((1-methylcyclopropyl)sulfonyl)-5,16-dioxo-6-(pyrimidin-2-ylamino)-1′,2′,3,5,6,7,8,9,10,11,13a,14,14a,15,16,16a-hexadecahydro-1H-spiro[cyclopropa[e]pyrrolo[1,2-a][1,4]diazacyclopentadecine-2,3′-pyrano[2,3-c]quinoline]-14a-carboxamide] has an EC50 (HCV genotype 1b replicon; genotype 1b replicon) of 9.23 nM and an IC50 [1, 3] of 0.137 nM.
With `CC(C)COC(=O)N[C@H]1CCCCC/C=C\[C@@H]2C[C@@]2(C(=O)NS(=O)(=O)C2(C)CC2)NC(=O)[C@@H]2C[C@]3(CCc4c(c(C5CC5)nc5c(F)cccc45)O3)CN2C1=O` [Example 151, 2-methylpropyl [(2R,6S,12Z,13aS,14aR,16aS)-5′-cyclopropyl-7′-fluoro-14a-{[(1-methylcyclopropyl)sulfonyl]carbamoyl}-5,16-dioxo-1,1′,2′,5,6,7,8,9,10,11,13a,14,14a,15,16,16a-hexadecahydrospiro[cyclopropa[e]pyrrolo[1,2-a][1,4]diazacyclopentadecine-2,3′-pyrano[2,3-c]quinolin]-6-yl]carbamate] the EC50 (HCV genotype 1b replicon; genotype 1b replicon, K+ salt) was 1.77 nM and the IC50 [1, 6] was 0.014 nM.
`Cc1nc2ccc(C#N)cc2c2c1O[C@]1(CC2)C[C@H]2C(=O)N[C@]3(C(=O)NS(=O)(=O)C4(C)CC4)C[C@H]3/C=C\CCCCC[C@H](NC(=O)OC(C)(C)C)C(=O)N2C1` [Example 59, tert-Butyl ((2R,6S,13aS,14aR,16aS,Z)-9′-cyano-5′-methyl-14a-(((1-methylcyclopropyl)sulfonyl)carbamoyl)-5,16-dioxo-1′,2′,3,5,6,7,8,9,10,11,13a,14,14a,15,16,16a-hexadecahydro-1H-spiro[cyclopropa[e]pyrrolo[1,2-a][1,4]diazacyclopentadecine-2,3′-pyrano[2,3-c]quinolin]-6-yl)carbamate] showed an EC50 (HCV genotype 1b replicon; genotype 1b replicon) of 3.45 nM and an IC50 [1, 3] of 0.019 nM.
Work on `COc1ccc2nc(C)c3c(c2c1)[C@H](F)C[C@]1(C[C@H]2C(=O)N[C@]4(C(=O)NS(=O)(=O)C5(C)CC5)C[C@H]4/C=C\CCCCC[C@H](NC(=O)O[C@@H](C)C(C)C)C(=O)N2C1)O3` [Example 358, (2S)-3-methylbutan-2-yl [(1′R,2S,6S,12Z,13aS,14aR,16aS)-1′-fluoro-9′-methoxy-5′-methyl-14a-{[(1-methylcyclopropyl)sulfonyl]carbamoyl}-5,16-dioxo-1,1′,2′,5,6,7,8,9,10,11,13a,14,14a,15,16,16a-hexadecahydrospiro[cyclopropa[e]pyrrolo[1,2-a][1,4]diazacyclopentadecine-2,3′-pyrano[2,3-c]quinolin]-6-yl]carbamate] yielded an EC50 (HCV genotype 1b replicon; [4]) of 42.8 nM and an IC50 [1, 5] of 0.172 nM.
